# What was measured:
# [1] = biological target: T1, cytoplasmic domain of the human CSF-1R (Homo sapiens, UniProt P07333); test: In vitro kinase assay for CSF-1R (AlphaScreen); assay type: biochemical; conditions: tested at about 1 μM
# T1 construct: Recombinant protein corresponding to the cytoplasmic domain of the human CSF-1R; purchased Invitrogen Corporation, Carlsbad, Calif; U.S.A. PV3249
# T1 sequence (P07333 539-972 limits assumed): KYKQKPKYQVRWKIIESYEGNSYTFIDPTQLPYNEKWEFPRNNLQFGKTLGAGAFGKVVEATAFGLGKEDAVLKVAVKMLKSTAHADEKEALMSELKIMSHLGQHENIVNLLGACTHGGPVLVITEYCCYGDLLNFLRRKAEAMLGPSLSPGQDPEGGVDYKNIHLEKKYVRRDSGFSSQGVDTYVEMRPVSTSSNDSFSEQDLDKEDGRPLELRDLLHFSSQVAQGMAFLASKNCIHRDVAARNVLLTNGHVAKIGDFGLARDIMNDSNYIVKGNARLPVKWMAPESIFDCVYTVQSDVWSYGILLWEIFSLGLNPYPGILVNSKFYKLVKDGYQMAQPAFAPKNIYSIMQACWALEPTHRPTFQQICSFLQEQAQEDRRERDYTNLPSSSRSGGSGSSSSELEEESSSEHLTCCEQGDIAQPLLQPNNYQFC
# Procedure: The kinase activity of various protein tyrosine kinases can be measured by providing ATP and a suitable peptide or protein tyrosine-containing substrate, and assaying the transfer of phosphate moiety to the tyrosine residue. Recombinant protein corresponding to the cytoplasmic domain of the human CSF-1R was purchased from Invitrogen Corporation, Carlsbad, Calif. U.S.A. (#PV3249). For each assay, test compounds were serially diluted, starting at 25 μM with 3 fold dilutions, in DMSO in 384 well plates then mixed with an appropriate kinase reaction buffer consisting of 50 mM Hepes, 5 mM MgCl2, 10 mM MnCl2, 0.1% BSA, pH 7.5, 1.0 mM dithiothreitol, 0.01% Tween 80 plus […]. Kinase protein and an appropriate biotinylated peptide substrate at 50 nM were added to give a final volume of 20 μL, reactions were incubated for 2 hours at room temperature and stopped by the addition of 10 μL of 45 mM EDTA, 50 mM Hepes pH 7.5. Added to the stopped reaction mix was 30 μL of PT66 Alphascreen beads (Perkin Elmer, Boston, Mass., U.S.A.). The reaction was incubated overnight and read on the Envision (Perkin Elmer). Phosphorylated peptide product was measured with the AlphaScreen system (Perkin Elmer) using acceptor beads coated with anti-phosphotyrosine antibody PT66 and donor beads coated with streptavidin that emit a fluorescent signal at the 520-620 nm emission wave length if in close proximity. The concentration of each compound for 50% inhibition (IC50) was calculated by non-linear regression using XL Fit data analysis software.
# CSF-1R kinase was assayed in 50 mM Hepes pH 7.0, 5 mM MgCl2, 10 mM MnCl2, 1 mM DTT, 1 mg/mL BSA, 1.0 μM ATP, and 0.05 μM biotin-GGGGRPRAATF-NH2 (SEQ ID NO:2) peptide substrate. CSF-1R kinase was added at final concentration of 4 nM.
# cKIT = biological target: T2, cKIT (Homo sapiens, UniProt P10721); test: Inhibition of cKIT kinase in an in vitro biochemical assay (alphascreen); conditions: tested at about 1 μM
# T2 construct: The kinase domain of cKIT was assayed in 50 mM Hepes; purchased Upstate 14-559
# Procedure: (§1) The IC50 values for the inhibition of RTKs were determined in the alphascreen format measuring the inhibition by compound of phosphate transfer to a substrate by the respective enzyme. Briefly, the respective RTK domain purchased as human recombinant protein (cKIT Upstate #14-559, PDGFRb Invitrogen #P3082) were incubated with serial dilutions of compound in the presence of substrate and ATP concentrations within 3 times the Km of the enzyme.
# (§2) The kinase domain of cKIT was assayed in 50 mM Hepes, pH=7.5, 5 mM MgCl2, 10 mM MnCl2, 1 mM DTT, 0.1% BSA with 0.06 uM biotinylated peptide substrate (GGLFDDPSYVNVQNL-NH2) and 15 μM ATP (ATP KM apparent =15 μM). The kinase domain of PDGFRβ was assayed in 50 mM Hepes, pH=7.5, 20 mM MgCl2, 1 mM DTT, 0.1% BSA with 0.1 μM biotinylated peptide substrate (GGLFDDPSYVNVQNL-NH2) and 10 μM ATP (ATP KM apparent=25 μM). Reactions were incubated at room temperature for 3 to 4 hr and stopped with buffer (20 mM EDTA, 0.01% Tween-20 for both PDGFRβ and cKIT). Alphascreen PY20 beads were added to the stopped cKIT reactions and PY20 Ab/Protein A Alphascreen beads were added to the PDGFRβ stopped reactions. Both reactions were incubated overnight and read on the Alphascreen reader. The concentration of compound for 50% inhibition (IC50) was calculated employing non-linear regression using XL-Fit data analysis software. As a control compound, staurosporine is run in every assay and a Z′>0.5 is required to validate results.
# PDGFRb = biological target: T3, PDGFRb (Homo sapiens, UniProt P09619); test: Inhibition of PDGFRb kinase in an in vitro biochemical assay (alphascreen); conditions: tested at about 1 μM; read-out: PDGFR % inhibition at 1 μM
# T3 construct: The kinase domain of PDGFRβ was assayed in 50 mM Hepes; purchased Invitrogen P3082
# Procedure: as §1, §2
# T2 sequence (P10721 589-937 limits assumed): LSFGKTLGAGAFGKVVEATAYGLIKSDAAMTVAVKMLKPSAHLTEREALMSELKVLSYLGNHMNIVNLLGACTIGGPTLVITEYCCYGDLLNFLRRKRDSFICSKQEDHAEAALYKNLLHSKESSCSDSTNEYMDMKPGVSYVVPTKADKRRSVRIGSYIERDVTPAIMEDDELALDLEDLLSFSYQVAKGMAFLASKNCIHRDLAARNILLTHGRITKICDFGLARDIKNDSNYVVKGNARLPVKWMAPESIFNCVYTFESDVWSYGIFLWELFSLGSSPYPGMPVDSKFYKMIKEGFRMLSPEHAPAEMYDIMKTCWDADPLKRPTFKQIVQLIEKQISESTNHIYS
# T3 sequence (P09619 600-962 limits assumed): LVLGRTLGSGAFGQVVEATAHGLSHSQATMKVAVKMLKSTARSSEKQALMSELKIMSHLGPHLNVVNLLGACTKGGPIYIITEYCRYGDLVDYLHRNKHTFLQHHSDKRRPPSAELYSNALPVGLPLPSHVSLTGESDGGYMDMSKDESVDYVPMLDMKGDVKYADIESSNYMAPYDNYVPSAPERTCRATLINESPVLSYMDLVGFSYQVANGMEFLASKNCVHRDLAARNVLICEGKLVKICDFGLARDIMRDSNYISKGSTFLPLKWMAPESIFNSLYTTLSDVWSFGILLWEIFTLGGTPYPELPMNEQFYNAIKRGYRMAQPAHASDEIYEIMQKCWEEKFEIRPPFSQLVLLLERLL
SMILES,inhibition at 1 µM [1] [%],inhibition at 1 µM (cKIT) [%],inhibition at 1 µM (PDGFRb) [%]
"OC(c1ccncc1)c1ccc2nc(NCC3CCCCC3)sc2c1 (stereo not drawn) [Example 76, (2-(cyclohexylmethylamino)benzo [d]thiazol-6-yl)(pyridin-4-yl)methanol]",65,49,27
"CNC(=O)c1cc(Oc2ccc3nc(Nc4ccccc4OCCO)ncc3c2)ccn1 [Example 70, 4-(2-(2-(2-hydroxyethoxy)phenylamino)quinazolin-6-yloxy)-N-methylpicolinamide]",95,11,13
"c1cc(Cc2ccc3nc(NCC4CCCCC4)sc3c2)ccn1 [Example 77, N-(cyclohexylmethyl)-6-(pyridin-4-ylmethyl)benzo[d]thiazol-2-amine]",74,10,16
"CNC(=O)c1cc(Oc2ccc3nc(NCc4ccccc4N4CCOCC4)ncc3c2)ccn1 [Example 41, N-methyl-4-(2-(2-morpholinobenzylamino)quinazolin-6-yloxy)picolinamide]",100,6,92
"CN(C)C(=O)c1cc(Oc2ccc3nc(Nc4ccccc4N4CCOCC4)ncc3c2)ccn1 [Example 31, N,N-dimethyl-4-(2-(2-morpholinophenylamino)quinazolin-6-yloxy)picolinamide]",67,8,< 1
"NC(=O)c1cc(Oc2ccc3nc(Nc4ccccc4N4CCOCC4)ncc3c2)ccn1 [Example 33, 4-(2-(2-morpholinophenylamino)quinazolin-6-yloxy)picolinamide]",84,14,< 1
"CNC(=O)c1cc(Oc2ccc3nc(N[C@H](C)c4ccccc4)ncc3c2)ccn1 [Example 38, (R)-N-methyl-4-(2-(1-phenylethylamino)quinazolin-6-yloxy)picolinamide]",99,92,46
"CC(=O)Nc1cc(Oc2ccc3nc(Nc4ccccc4N4CCOCC4)ncc3c2)ccn1 [Example 32, N-(4-(2-(2-morpholinophenylamino)quinazolin-6-yloxy)pyridin-2-yl)acetamide]",99,7,< 1
"CNC(=O)c1cc(Oc2ccc3nc(Nc4ccccc4OC)ncc3c2)ccn1 [Example 44, 4-(2-(2-methoxyphenylamino)quinazolin-6-yloxy)-N-methylpicolinamide]",99,44,3
"CNC(=O)c1cc(Oc2ccc3nc(Nc4ccccc4OC(C)C)ncc3c2)ccn1 [Example 46, 4-(2-(2-isopropoxyphenylamino)quinazolin-6-yloxy)-N-methylpicolinamide]",100,27,17
"CNC(=O)c1cc(Oc2ccc3nc(N[C@H]4c5ccccc5C[C@H]4O)ncc3c2)ccn1 [Cmpd 20, 4-(2-((1S,2R)-2-hydroxy-2,3-dihydro-1H-inden-1-ylamino)quinazolin-6-yloxy)-N-methylpicolinamide]",100,60,25
"CNC(=O)c1cc(Oc2ccc3nc(NC(C)c4nccs4)ncc3c2)ccn1 (stereo not drawn) [Example 48, N-methyl-4-(2-(1-(thiazol-2-yl)ethylamino)quinazolin-6-yloxy)picolinamide]",98,18,15
"CNC(=O)c1cc(Nc2ccc3nc(N[C@@H]4CCCC[C@H]4O)sc3c2)ccn1 [Example 79, 4-(2-((1R,2R)-2-hydroxycyclohexylamino)benzo[d]thiazol-6-ylamino)-N-methylpicolinamide]",97,13,< 1

# Second part, the compound after the results:
inhibition at 1 µM [1] [%],inhibition at 1 µM (cKIT) [%],inhibition at 1 µM (PDGFRb) [%],SMILES
65,8,< 1,"CNC(=O)c1cc(Oc2ccc3nc(NC4CCOCC4)ncc3c2)ccn1 [Example 58, N-methyl-4-(2-(tetrahydro-2H-pyran-4-ylamino)quinazolin-6-yloxy)picolinamide]"
100,21,32,CNC(=O)c1cc(Oc2ccc3nc(N[C@H]4CCCC[C@@H]4O)ccc3c2)ccn1 [Example 2]
96,13,< 1,"CNC(=O)c1cc(Oc2ccc3nc(NC4CCCC4)ncc3c2)ccn1 [Example 66, 4-(2-(cyclopentylamino)quinazolin-6-yloxy)-N-methylpicolinamide]"
100,58,26,"CNC(=O)c1cc(Oc2ccc3nc(N[C@@H](C)C4CCCCC4)ncc3c2)ccn1 [Cmpd 16, (S)-4-(2-(1-cyclohexylethylamino)quinazolin-6-yloxy)-N-methylpicolinamide]"
100,50,26,"CNC(=O)c1cc(Oc2ccc3nc(N[C@H](C)C4CCCCC4)ncc3c2)ccn1 [Example 15, (R)-4-(2-(1-cyclohexylethylamino)quinazolin-6-yloxy)-N-methylpicolinamide]"
84,17,< 1,"CCOC(=O)N1CCC(Nc2ncc3cc(Oc4ccnc(C(=O)NC)c4)ccc3n2)CC1 [Example 56, ethyl 4-(6-(2-(methylcarbamoyl)pyridin-4-yloxy)quinazolin-2-ylamino)piperidine-1-carboxylate]"
100,51,33,CNC(=O)c1cc(Oc2ccc3nc(N[C@@H]4CCCC[C@H]4O)ccc3c2)ccn1 [Example 1]
71,7,< 1,"CNC(=O)c1cc(Oc2ccc3nc(NCCN4CCOCC4)ncc3c2)ccn1 [Example 35, N-methyl-4-(2-(2-morpholinoethylamino)quinazolin-6-yloxy)picolinamide]"
100,61,38,"CNC(=O)c1cc(Oc2ccc3nc(N[C@@H](CO)C4CCCCC4)ncc3c2)ccn1 [Cmpd 17, (R)-4-(2-(1-cyclohexyl-2-hydroxyethylamino)quinazolin-6-yloxy)-N-methylpicolinamide]"
99,30,31,"CNC(=O)c1cc(Oc2ccc3nc(N[C@H](CO)C4CCCCC4)ncc3c2)ccn1 [Cmpd 18, (S)-4-(2-(1-cyclohexyl-2-hydroxyethylamino)quinazolin-6-yloxy)-N-methylpicolinamide]"
